According to ChEMBL document CHEMBL1201862, “PubChem BioAssay data set” (2004):
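Method: 48-hour compound exposure of cells in 96-well plates, five concentrations, linear interpolation of endpoints. Here, GI50 denotes the concentration required for 50% inhibition of growth.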 Activity calls are given as the source filed them. Cut-off read from the data, not from the text of the source: active = GI50 up to about 1.1 µM and inactive = higher.

Tests used:
Assay in all cases: NCI anticancer screen, dose series, 48 h
BT-549 = system: BT-549
Hs-578T = system: Hs-578T
MDA-MB-231 = system: MDA-MB-231
MDA-MB-435 = system: MDA-MB-435
MDA-N = system: MDA-N
PC-3 = system: PC-3
T47D = system: T47D

Measured: GI50

CC(C)(O)/C1=C/C=C/CCCCCCCCCC1
inactive: BT-549 > 100 µM | Hs-578T 1.19 µM | MDA-MB-231 > 100 µM | MDA-MB-435 > 100 µM | MDA-N > 100 µM | PC-3 87.1 µM | T47D > 100 µM

CC(C)(C)OC(=O)NCCc1ccc(N)cc1
inactive: MDA-MB-231 > 100 µM | MDA-MB-435 > 100 µM | MDA-N > 100 µM | PC-3 > 100 µM | T47D 74.5 µM
